Measurements as given in ChEMBL document CHEMBL5370585, “Exploration and Biological Evaluation of 1,3-Diamino-7H-pyrrol[3,2-f]quinazoline Derivatives as Dihydrofolate Reductase Inhibitors” (J Med Chem, 2023).

Tests used:
EMT6 [1] = experiment: Antitumor activity against mouse EMT6 cells xenografted in BALB/c mouse model assessed as tumor growth inhibition at 20 mg/kg,ip administered every 3 days for 14 consecutive days relative to control; assay type: functional; design: scale not given: the % may be the effect or the level left; conditions: time 14 day
[2] = Toxicity in BALB/c mouse xenografted with mouse EMT6 cells at 24 mg/kg, ip administered every 3 days for 14 consecutive days; assay type: organism-based; conditions: in vivo, 336 h, time 14 day
[3] = Toxicity in BALB/c mouse xenografted with mouse EMT6 cells assessed as effect on body weight at 20 mg/kg, ip measured on day 14 (reference value: 21.6 +/-0.6g); assay type: organism-based; conditions: in vivo, 336 h, time 14 day
EMT6 [4] = experiment: Antitumor activity against mouse EMT6 cells xenografted in BALB/c mouse model assessed as tumor weight at 20 mg/kg,ip administered every 3 days for 14 consecutive days (reference value: 1.53 +/-0.26g); assay type: functional; conditions: time 14 day
[5] = Toxicity in BALB/c mouse xenografted with mouse EMT6 cells assessed as effect on body weight at 20 mg/kg, ip measured on day 1 (reference value: 18.5 +/-0.5g); assay type: organism-based; conditions: in vivo, 24 h, time 1 day

Question: With `CC(=O)O[C@H]1C(=O)[C@@]2(C)[C@H]([C@H](OC(=O)c3ccccc3)[C@]3(O)C[C@H](OC(=O)[C@H](O)[C@@H](NC(=O)c4ccccc4)c4ccccc4)C(C)=C1C3(C)C)[C@]1(OC(C)=O)CO[C@@H]1C[C@@H]2O` [PACLITAXEL] as the molecule, how does the Activity (EMT6 [1]) read?
Answer: 53.2%

Question: And the Activity [2]?
Answer: Non-Toxic

Question: What about the Activity [3] of the same molecule?
Answer: 20.1 g

Question: And the Activity (EMT6 [4])?
Answer: 0.71 g

Question: What about the Activity [5] of the same molecule?
Answer: 18.6 g
